Biological target: T1, CX3CR1 (Homo sapiens, UniProt P49238)
T1 construct: expressed in transfected cells; host or cells: B300 cells
T1 sequence (P49238 1-355): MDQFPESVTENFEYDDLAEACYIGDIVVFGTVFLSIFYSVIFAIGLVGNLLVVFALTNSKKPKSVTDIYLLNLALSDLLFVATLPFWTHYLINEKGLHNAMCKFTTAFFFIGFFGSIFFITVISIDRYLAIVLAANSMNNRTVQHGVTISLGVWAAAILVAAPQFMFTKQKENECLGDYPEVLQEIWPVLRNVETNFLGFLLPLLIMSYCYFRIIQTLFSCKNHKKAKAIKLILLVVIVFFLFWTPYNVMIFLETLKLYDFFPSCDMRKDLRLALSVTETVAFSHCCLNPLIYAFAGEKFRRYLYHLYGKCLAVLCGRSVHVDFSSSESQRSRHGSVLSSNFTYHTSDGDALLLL
Test: Inhibition of cell migration in fractalkine-induced chemotaxis assay
Format: cell-based
Conditions: CX3CR1-expressing B300 cells preincubated with test compound 30 minutes; fractalkine 0.3 nM in lower wells; Transwell, 3.5 hours at 37° C.; migrated cells counted with CellTiter; read-out: IC50 (nM), 50% inhibitory concentration on fractalkine-induced cell migration
Experimental: The inhibitory effects of the example compounds on fractalkine-induced cell migration were examined using CX3CR1-transfected B300 cells
After equilibrating the Transwell plate (24-well clusters, pore size: 5 μm, manufactured by Corning Incorporated), a fractalkine solution (0.3 nM, manufactured by R&D Systems, Inc.) was added to the lower wells. CX3CR1-expressing B300 cells which were preincubated with the test compound (0.001, 0.003, 0.01 or 0.03 μM) for 30 minutes were placed in the upper layer wells, followed by incubation under the condition of 5% CO2 for 3.5 hours at 37° C. The number of cells migrated to the lower wells was evaluated using CellTiter (manufactured by Promega Corporation).
The inhibitory rate of the test compound on fractalkine-induced cell migration was calculated by the following formula, where [A] is the number of migrated cells in the presence of both fractalkine and the test compound, [B] is the number of migrated cells in the presence of fractalkine and in the absence of the test compound, and [C] is the number of migrated cells in the absence of both fractalkine and the test compound; the 50% inhibitory concentration (IC50) was calculated based on the inhibitory rate. Inhibitory rate (%)=[1−{(A−C)/(B−C)}]×100 (2) Results

C[C@H]1CN(Cc2c(Cl)cccc2Cl)C[C@@]1(CC(=O)O)C(=O)N[C@H]1CCN(CC2=CCCCC2)C1 (relative stereo) [Example 9]
IC50: 16 nM

Cc1cccc(Cl)c1CN1C[C@H](C)[C@](CC(=O)O)(C(=O)NC2CCN(CC3=CCCC3)CC2)C1 [Example 8, 2-[(3S,4R)-1-[(2-Chloro-6-methylphenyl)methyl]-3-{[(1-cyclopent-1-en-1-ylmethyl)piperidin-4-yl]carbamoyl}-4-methylpyrrolidin-3-yl]acetic acid]
IC50: 31 nM

C[C@H]1CN(Cc2c(Cl)cccc2Cl)C[C@@]1(CC(=O)O)C(=O)NC1CCN(CC2=CCCCC2)CC1 [Example 11, 2-[(3S,4R)-3-{[(1-Cyclohex-1-en-1-ylmethyl)piperidin-4-yl]carbamoyl}-1-[(2,6-dichlorophenyl)methyl]-4-methylpyrrolidin-3-yl]acetic acid]
IC50: 6 nM
